Data reported in US20240043392A1, “NOVEL BIPHENYL DERIVATIVE AND PREPARATION METHOD AND PHARMACEUTICAL USE THEREOF” (XI'AN XINTON PHARMACEUTCAL RESEARCH CO., LTD., priority 2021, published 2024).
Where two headings read alike, the source gives them in different places.

Columns and labels:
[1] = target: hPD-1/hPD-L1 interaction (Homo sapiens (Human), UniProt Q9NZQ7); settings: read-out: PD-1/PD-L1 IC50
[2] = target: Fc-hPD-L1 protein (Homo sapiens (Human), UniProt Q9NZQ7); type: binding
[3] = tested on: C57BL/6 mice; settings: mouse, in vivo
[4] = tested on: MC38-hPDL1 colon cancer cells; set-up: species or system mice; settings: mouse, in vivo
[5] = tested on: C57BL/6 mice; test: Acute toxicity test, intraperitoneal injection; settings: 125 mg/kg

Sequence of Fc-hPD-L1 protein (Q9NZQ7 19-238 limits assumed): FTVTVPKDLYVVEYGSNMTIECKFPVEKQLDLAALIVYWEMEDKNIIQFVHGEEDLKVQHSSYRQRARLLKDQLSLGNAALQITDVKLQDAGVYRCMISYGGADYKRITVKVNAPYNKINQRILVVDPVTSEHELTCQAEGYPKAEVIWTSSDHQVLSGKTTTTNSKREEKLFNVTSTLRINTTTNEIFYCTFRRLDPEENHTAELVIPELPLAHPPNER
Sequence of hPD-1/hPD-L1 interaction (Q9NZQ7 19-238): as the sequence (Q9NZQ7 19-238 limits assumed) above

Row | Compound | IC50 [1] | Kd [2] | further results
1 | (4-((3′-(3-(4-(((1-carboxy-2-hydroxyethyl)amino)methyl)-1H-1,2,3-triazol-1-)propoxy)-2,2′-d imethyl-[1,1′-biphenyl]-3-yl)methoxy)-5-chloro-2-methoxybenzyl)serine [II-7] | 0.0001 to 0.01 µM | 0.0001 to 0.1 µM | –
2 | 5-((4-chloro-2-(((2-hydroxyethyl)amino)methyl)-5-((3′-(3-(4-(((2-hydroxyethyl)amino)methy 1 Base)-1H-1,2,3-triazol-1-)propoxy)-2,2′-dimethyl-[1,1′-biphenyl]-3-)methoxy) phenoxy) methyl)nicotinonitrile [II-2] | 0.01 to 0.1 µM | – | –
3 | (4-((3′-(3-(4-(((carboxymethyl)amino)methyl)-1H-1,2,3-triazol-1-)propoxy)-2, 2′-dichloro-[1,1′-biphenyl]-3-)methoxy)-5-chloro-2-((5-cyanopyridin-3-)methoxy)benzyl) glycine [II-17] | 0.1 to 1 µM | – | –
4 | COc1cc(OCc2cccc(-c3cccc(OCCCn4cc(CN5CC[C@@H](O)C5)nn4)c3C)c2C)c(Cl)cc1CN1CC[C@@H](O)C1 [II-11, (R)-1-((1-(3-((3′-((2-chloro-4-(((R)-3-hydroxypyrrolidin-1-yl)methyl)-5-methoxyphenoxy)methyl)-2,2′-dimethyl-[1,1′-biphenyl]-3-)oxy)propyl)-1H-1,2,3-triazol-4-)methyl)py rrolidin-3-ol] | 0.01 to 0.1 µM | 0.0001 to 0.1 µM | –
5 | CCOC(=O)[C@@H](CO)NCc1cn(CCCOc2cccc(-c3cccc(COc4cc(OCc5cncc(C#N)c5)c(CN[C@H](CO)C(=O)OCC)cc4Cl)c3C)c2C)nn1 [II-18, (5-chloro-2-((5-cyanopyridin-3-)methoxy)-4-((3′-(3-(4-((((R)-1-ethoxy-3-hydroxy-1-oxopropan-2-)amino)methyl)-1H-1,2,3-triazol-1-)propoxy)-2,2′-dimethyl-[1,1′-biphenyl]-3-)methoxy)benzyl)-D-serine ethyl ester] | 0.01 to 0.1 µM | 0.1 to 1 µM | body weight [3]: nor did their body weight decrease; proliferation of CD3+CD4+T cell [4]: can promote the proliferation; proliferation of CD3+CD8+T cell [4]: can promote the proliferation; relative tumor inhibition rate [4]: 49.6%; tumor weight [4]: excellent anti-tumor effect
6 | COC(=O)[C@@H](CO)NCc1cn(CCCOc2cccc(-c3cccc(COc4cc(OCc5cncc(C#N)c5)c(CN[C@H](CO)C(=O)OC)cc4Cl)c3C)c2C)nn1 [II-19, (5-chloro-2-((5-cyanopyridin-3-)methoxy)-4-((3′-(3-(4-((((R)-1-methoxy-3-hydroxy-1-oxopropan-2-)amino)methyl)-1H-1,2,3-triazol-1-)propoxy)-2,2′-dimethyl-[1,1′-biphenyl]-3-)methoxy)benzyl)-D-serine methyl ester] | 0.01 to 0.1 µM | 0.1 to 1 µM | –
7 | CCOC(=O)[C@@H](CO)NCc1cn(CCCOc2cccc(-c3cccc(COc4cc(OC)c(CN[C@H](CO)C(=O)OCC)cc4Cl)c3C)c2C)nn1 [II-21, ((1-(3-((3′-((2-chloro-4-((((R)1-ethoxy-3-hydroxy-1-oxopropan-2-)amino)methyl)-5-methoxyphenoxy)methyl)-2,2′-dimethyl-[1,1′-biphenyl]-3-)oxy)propyl)-1H-1,2,3-triazol-4-)methyl)-D-serine ethyl ester] | 0.01 to 0.1 µM | 0.1 to 1 µM | –
8 | COc1cc(OCc2cccc(-c3cccc(OCCCn4cc(CNC(C)C(=O)O)nn4)c3C)c2C)c(Cl)cc1CN[C@@H](C)C(=O)O (stereo partly drawn) [II-15, (4-((3′-(3-(4-(((1-carboxyethyl)amino)methyl)-1H-1,2,3-triazol-1-yl)propoxy)-2 ,2′-dimethyl-[1,1′-biphenyl]-3-)methoxy)-5-chloro-2-methoxybenzyl)alanine] | 0.0001 to 0.01 µM | – | –
9 | 1-(4-((3′-(3-(4-((2-carbamoylpyrrolidin-1-)methyl)-1H-1,2,3-triazol-1-) Propoxy)-2,2′-dimethyl-[1,1′-biphenyl]-3-methoxy)-5-chloro-2-((5-cyanopyridine-3-)methox y)benzyl) pyrrolidine-2-carboxamide [II-4] | 0.01 to 0.1 µM | – | –
10 | COc1nc(OCc2cccc(-c3ccccc3)c2C)ccc1CNCCNC(C)=O [BMS-202] | – | – | body weight [5]: decreased significantly; state of mice (clinical signs) [5]: obvious signs of convulsions and tremors
11 | CCOC(=O)CNCc1cn(CCCOc2cccc(-c3cccc(COc4cc(OCc5cncc(C#N)c5)c(CNCC(=O)OCC)cc4Cl)c3C)c2C)nn1 [II-20, (5-chloro-2-((5-cyanopyridin-3-yl)methoxy)-4-((3′-(3-(4-(((2-ethoxy-2-oxoethyl)amino)methyl)-1H-1,2,3-triazol-1-)propoxy)-2,2′-dimethyl-[1,1′-biphenyl]-3-)methoxy)benzyl)glycine ethyl ester] | 0.01 to 0.1 µM | 0.1 to 1 µM | –
12 | COc1cc(OCc2cccc(-c3cccc(OCCCn4cc(CN5CCCCC5C(=O)O)nn4)c3C)c2C)c(Cl)cc1CN1CCCCC1C(=O)O (stereo not drawn) [II-13] | 0.0001 to 0.01 µM | – | –
13 | COc1cc(OCc2cccc(-c3cccc(OCCCn4cc(CNCCO)nn4)c3C)c2C)c(Cl)cc1CNCCO [II-9] | 0.0001 to 0.01 µM | 0.0001 to 0.1 µM | –
14 | (4-((3′-(2-(4-(((1-carboxy-2-hydroxyethyl)amino)methyl)-1H-1,2,3-triazol-1-)ethyl oxy)-2,2′-dimethyl-[1,1′-biphenyl]-3-)methoxy)-5-chloro-2-((5-cyanopyridin-3-)methoxy)ben zyl)serine [II-6] | 0.1 to 1 µM | – | –
15 | Cc1c(COc2cc(OCc3cncc(C#N)c3)c(CN[C@@H](CO)C(=O)O)cc2Cl)cccc1-c1cccc(OCCCn2cc(CNC(CO)C(=O)O)nn2)c1C (stereo partly drawn) [II-1, (4-((3′-(3-(4-(((1-carboxy-2-hydroxyethyl)amino)methyl)-1H-1,2,3-triazole-1-)propaneoxy)-2,2′-dimethyl-[1,1′-biphenyl]-3-)methoxy)-5-chloro-2-((5-cyanopyridin-3-)methoxy)benzyl)serine] | 0.0001 to 0.01 µM | 0.0001 to 0.1 µM | body weight [3]: nor did their body weight decrease; inhibitory effect on tumor growth [4]: weak inhibitory effect on tumor growth; proliferation of CD3+CD4+T cell [4]: can promote the proliferation; proliferation of CD3+CD8+T cell [4]: can promote the proliferation; relative tumor inhibition rate [4]: 45.8%; tumor weight [4]: excellent anti-tumor effect
16 | COc1cc(OCc2cccc(-c3cccc(OCCCn4cc(CNCCC(=O)O)nn4)c3C)c2C)c(Cl)cc1CNCCC(=O)O [II-12, 3-((4-((3′-(3-(4-(((2-carboxyethyl)amino)methyl)-1H-1,2,3-triazol-1-)propoxyl)-2,2′-dimethyl-[1,1′-biphenyl]-3-)methoxy)-5-chloro-2-methoxybenzyl)amino)propionic acid] | 0.0001 to 0.01 µM | 0.0001 to 0.1 µM | –
17 | (4-((3′-(3-(4-(((carboxymethyl)amino)methyl)-1H-1,2,3-triazol-1-)propoxy)-2,2′-dimethyl-[1,1′-biphenyl]-3-)methoxy)-5-chloro-2-((5-cyanopyridin-3-)methoxy)benzyl) glycine [II-5] | 0.0001 to 0.01 µM | 0.0001 to 0.1 µM | –
18 | COc1cc(OCc2cccc(-c3cccc(OCCCn4cc(CN5CCCC5C(N)=O)nn4)c3C)c2C)c(Cl)cc1CN1CCCC1C(N)=O (stereo not drawn) [II-8, 1-(4-((3′-(3-(4-((2-carbamoylpyrrolidin-1-)methyl)-1H-1,2,3-triazol-1-) Propoxy)-2,2′-dimethyl-[1,1′-biphenyl]-3-)methoxy)-5-chloro-2-methoxybenzyl)pyrrolidine-2-formamide] | 0.01 to 0.1 µM | 0.0001 to 0.1 µM | –
19 | N-(2-((4-((3′-(3-(4-(((2-acetylaminoethyl)amino) methyl)-1H-1,2,3-triazole-1-)propoxy)-2,2′-dimethyl-[1,1′-biphenyl]-3-)methoxy)-5-chloro-2-((5-cyanopyridine-3-)methoxy) benzyl)amino)ethyl)acetamide [II-3] | 0.01 to 0.1 µM | 0.0001 to 0.1 µM | –
20 | (4-((3′-(3-(4-(((1-carboxy-2-hydroxyethyl)amino)methyl)-1H-1,2,3-triazol-1-)propoxyl)-2,2′-dichloro-[1,1′-biphenyl]-3-)methoxy)-5-chloro-2-((5-cyanopyridin-3-)methoxy)benzyl)serine [II-16] | 0.01 to 0.1 µM | – | –
21 | COc1cc(OCc2cccc(-c3cccc(OCCCn4cc(CNCCNC(C)=O)nn4)c3C)c2C)c(Cl)cc1CNCCNC(C)=O [II-10, N-(2-((4-((3′-(3-(4-(((2-acetylaminoethyl)amino)methyl)-1H-1,2,3-triazole-1-)propoxy)-2,2′-dimethyl-[1,1′-biphenyl]-3-)methoxy)-5-chloro-2-methoxybenzyl)amino)ethyl)acetamide] | 0.01 to 0.1 µM | – | –
